In ChEMBL document CHEMBL5214997, “6-Thioguanosine Monophosphate Prodrugs Display Enhanced Performance against Thiopurine-Resistant Leukemia and Breast Cancer Cells” (J Med Chem, 2022) one finds EC50, Activity and viability data, which are given here for eight molecules.

Activity calls are given as the source filed them. The calls are words filed in the database; no cut-off is given here.

By EC50 is commonly meant the midpoint of the concentration-response curve. Higher therefore signals a less potent agent.

For assay [1], the system named is HEK-293T. As to the kind of experiment: Antiproliferative activity against HEK293T cells with high HGPRT expression incubated for 48 hrs by CellTiter-Glo2 assay. Conditions: Homo sapiens. It is filed as functional, cell-based. (In general: Cellular ATP, detected with luciferase, serves as a proxy for viable cell number.)
The subject of assay [2] is THP-1. As to the kind of experiment: Antiproliferative activity against human THP-1 cells with low HGPRT expression incubated for 48 hrs by CellTiter-Glo2 assay. The assay is classed as functional, cell-based. Conditions: THP-1, 48 h.
Assay [3] concerns K562. The experiment in a line: Antiproliferative activity against human K562 cells with low HGPRT expression incubated for 48 hrs by CellTiter-Glo2 assay. It is filed as functional, cell-based. Conditions: K562, 48 h.
Assay [4] relates to HEK-293T. As to the kind of experiment: Effect on p21 mRNA expression in HEK293T cells assessed as increase in labeling efficiency at 100 uM incubated for 16 hrs and measured by TUC-Seq DUAL method. The assay is classed as functional, cell-based. The conditions noted are these: Homo sapiens.
Assay [5] concerns SK-BR-3. The experiment in a line: Antiproliferative activity against human SK-BR-3 cells with low HGPRT expression incubated for 48 hrs by CellTiter-Glo2 assay. The conditions noted are these: SK-BR-3, 48 h. The assay is classed as functional, cell-based.
Assay [6] in a line: Effect on CCNT1 mRNA expression in HEK293T cells assessed as percentage of labeled transcripts at 100 uM incubated for 2 hrs and measured by TUC-Seq DUAL method. It is filed as functional, Homo sapiens, HEK-293T.
Assay [7] is described as follows: Effect on p21 mRNA expression in HEK293T cells assessed as percentage of labeled transcripts at 100 uM incubated for 2 hrs and measured by TUC-Seq DUAL method. The assay is classed as functional, Homo sapiens, HEK-293T.
The nature of assay [8]: Effect on ND1 mRNA expression in HEK293T cells assessed as percentage of labeled transcripts at 100 uM incubated for 2 hrs and measured by TUC-Seq DUAL method. It is filed as functional, Homo sapiens, HEK-293T.
Assay [9] relates to SK-BR-3. As to the kind of experiment: Drug resistance of human SK-BR-3 cells assessed as percentage of resistant cells at 1 mM. It is filed as functional.
Assay [10] deals with K562. As to the kind of experiment: Antiproliferative activity against human K562 cells with low HGPRT expression assessed as cell survival at 1000 uM and incubated for 48 hrs by CellTiter-Glo2 assay. It is filed as functional. The conditions noted are these: read-out: Activity.
Assay [11] deals with SK-BR-3. The experiment in a line: Downregulation of HGPRT mRNA expression in human SK-BR-3 cells at 1 mM measured after 48 hrs by qPCR analysis. It is filed as functional, cell-based.
In assay [12] the test system is K562. As to the kind of experiment: Downregulation of HGPRT mRNA expression in human K562 cells at 1 mM measured after 48 hrs by qPCR analysis. The assay is classed as functional, cell-based. (Quantitative PCR measures a nucleic acid by following its amplification.)

Regarding `CC(C)(C)C(=O)SCCOP(=O)(OCCSC(=O)C(C)(C)C)OC[C@H]1O[C@@H](n2cnc3c(=S)[nH]c(N)nc32)[C@H](O)[C@@H]1O`, the EC50 in [1] stood at 246 µM; in assay [2], 8.4 µM; in assay [3] it was 62 µM.
Take `CC(=O)Oc1ccc(COP(=O)(O)OC[C@H]2O[C@@H](n3cnc4c(=S)[nH]c(N)nc43)[C@H](O)[C@@H]2O)cc1`: in assay [4], the outcome was Active. In addition, the EC50 is 6.9 µM in assay [1], 0.67 µM in assay [2], 2.3 µM in [3] and 201 µM in assay [5].
Turning to `Nc1nc(=S)c2ncn([C@@H]3O[C@H](CO)[C@@H](O)[C@H]3O)c2[nH]1` [THIOGUANOSINE], the Activity in assay [6], in assay [7] and in assay [8] was 2.5% each time. Also, the EC50 in assay [1] turned out to be 4.7 µM; in assay [2], 0.35 µM; in [3], 1.3 µM.
As for `Nc1nc2c(ncn2[C@@H]2O[C@H](COP3(=O)OCc4ccccc4O3)[C@@H](O)[C@H]2O)c(=S)[nH]1` (some centres not stated), the outcome in assay [4] was Active. Also, the EC50 stood at 14 µM in assay [1], 1.4 µM in assay [2], 7.2 µM in assay [3] and 25 µM in assay [5].
In the case of `CCC(CC)COC(=O)[C@H](C)NP(=O)(OC[C@H]1O[C@@H](n2cnc3c(=S)[nH]c(N)nc32)[C@H](O)[C@@H]1O)Oc1ccccc1` (some centres not stated), the EC50 in [2] came out at 33 µM; in [3] it was 92 µM.
Consider `Nc1nc2[nH]cnc2c(=S)[nH]1` [THIOGUANINE], for which the Activity in assay [9] turned out to be 40%. For the same molecule, the EC50 turned out to be 3.6 µM in assay [1], 0.27 µM in assay [2] and 0.74 µM in assay [3]. The viability at 1000 µM in [10] was determined as 15%. In addition, the result in assay [11] and in assay [12] was Active.
On to `CC(=O)Oc1ccc(COP(=O)(OCc2ccc(OC(C)=O)cc2)OC[C@H]2O[C@@H](n3cnc4c(SCc5ccc(OC(C)=O)cc5)nc(N)nc43)[C@H](O)[C@@H]2O)cc1`, for which the concentration giving a half-maximal response (EC50) in assay [1] stood at 6.7 µM; in assay [2], 0.34 µM; in [3], 2.6 µM; in assay [5], 3.5 µM.
Regarding `Nc1nc2c(ncn2[C@@H]2O[C@H](COP3(=O)OCc4cc(Cl)ccc4O3)[C@@H](O)[C@H]2O)c(=S)[nH]1` (some centres not stated), the result in [4] was Active. In addition, the EC50 came to 15 µM in assay [1], 0.4 µM in assay [2], 5.6 µM in assay [3] and 42 µM in [5].
